Experiments:
human topo IIα = target: T1, human topo IIα (Homo sapiens, UniProt P11388); assay: ATPase activity (ATP hydrolysis) assay, pyruvate kinase/lactate dehydrogenase coupled; assay type: biochemical
T1 construct: purchased Inspiralis (Norwich, U.K.)

HepG2 cells [1] = assay: Cell cycle analysis by flow cytometry; assay type: cell-based, human; conditions: 24 h
HepG2 cells [2] = assay: DNA double-strand break induction, γ-H2AX assay; assay type: cell-based, human
Solubility observations = assay type: physicochemical; conditions: 500 μM; erratic readings
[3] = 500 μM (compound 1: solubility problems, erratic readings)

T1 sequence (P11388 whole entry): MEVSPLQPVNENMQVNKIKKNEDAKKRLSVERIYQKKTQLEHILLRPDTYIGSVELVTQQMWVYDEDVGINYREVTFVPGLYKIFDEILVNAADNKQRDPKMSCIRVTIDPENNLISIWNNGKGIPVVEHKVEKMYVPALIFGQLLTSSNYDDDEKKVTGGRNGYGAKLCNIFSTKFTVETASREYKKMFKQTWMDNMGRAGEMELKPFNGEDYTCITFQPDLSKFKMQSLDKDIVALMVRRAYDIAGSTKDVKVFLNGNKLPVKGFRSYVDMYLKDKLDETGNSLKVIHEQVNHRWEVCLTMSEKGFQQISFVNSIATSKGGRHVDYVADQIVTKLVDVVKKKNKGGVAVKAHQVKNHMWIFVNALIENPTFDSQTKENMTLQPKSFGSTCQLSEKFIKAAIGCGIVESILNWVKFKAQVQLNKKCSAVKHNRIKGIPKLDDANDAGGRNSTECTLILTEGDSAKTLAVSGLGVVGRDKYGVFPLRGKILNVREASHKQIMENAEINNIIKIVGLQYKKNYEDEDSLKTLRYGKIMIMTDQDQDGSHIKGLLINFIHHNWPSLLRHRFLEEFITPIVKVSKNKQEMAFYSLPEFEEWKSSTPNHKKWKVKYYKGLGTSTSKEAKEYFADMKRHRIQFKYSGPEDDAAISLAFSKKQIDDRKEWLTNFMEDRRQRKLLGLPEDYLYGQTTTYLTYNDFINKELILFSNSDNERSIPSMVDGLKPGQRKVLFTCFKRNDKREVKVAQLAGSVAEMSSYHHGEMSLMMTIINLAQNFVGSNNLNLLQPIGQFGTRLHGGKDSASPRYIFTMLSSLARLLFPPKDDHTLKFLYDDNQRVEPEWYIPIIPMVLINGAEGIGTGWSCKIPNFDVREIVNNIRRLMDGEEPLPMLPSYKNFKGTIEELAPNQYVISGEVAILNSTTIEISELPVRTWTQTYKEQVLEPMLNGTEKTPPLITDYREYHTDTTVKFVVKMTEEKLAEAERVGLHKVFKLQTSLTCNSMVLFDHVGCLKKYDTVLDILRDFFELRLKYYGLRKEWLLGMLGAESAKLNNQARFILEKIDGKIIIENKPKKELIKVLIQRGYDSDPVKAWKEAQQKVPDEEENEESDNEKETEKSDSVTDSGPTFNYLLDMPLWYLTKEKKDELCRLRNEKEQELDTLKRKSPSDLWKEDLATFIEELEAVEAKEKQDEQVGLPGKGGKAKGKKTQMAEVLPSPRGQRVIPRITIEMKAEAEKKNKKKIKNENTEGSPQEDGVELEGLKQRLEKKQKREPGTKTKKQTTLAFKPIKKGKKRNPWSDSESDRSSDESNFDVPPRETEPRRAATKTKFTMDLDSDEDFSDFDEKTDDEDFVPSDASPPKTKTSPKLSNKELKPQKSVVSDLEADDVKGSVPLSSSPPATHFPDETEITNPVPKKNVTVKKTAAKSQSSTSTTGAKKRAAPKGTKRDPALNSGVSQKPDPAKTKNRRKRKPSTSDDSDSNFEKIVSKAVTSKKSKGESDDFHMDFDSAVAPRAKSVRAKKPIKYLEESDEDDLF

Percentage ATPase activity Run 1 (human topo IIα; 3.9 μM): 92.25% | Percentage ATPase activity Run 2 (human topo IIα; 3.9 μM): 88.37% | Percentage ATPase activity Run 1 (human topo IIα; 31.5 μM): 96.12% | Percentage ATPase activity Run 2 (human topo IIα; 31.5 μM): 94.57% | Percentage ATPase activity Run 1 (human topo IIα; 125 μM): 24.81% | Percentage ATPase activity Run 2 (human topo IIα; 125 μM): 16.28% | inhibition of topo IIα-mediated ATP hydrolysis (in words) (human topo IIα; 125 μM): almost fully inhibited | Percentage ATPase activity Run 1 (human topo IIα; [3]): 65.12% | Percentage ATPase activity Run 2 (human topo IIα; [3]): 36.43% | solubility in the ATPase assay (Solubility observations): solubility problems
Structure (SMILES): Cc1nc(N)sc1-c1csc(Nc2ccc(C(F)(F)F)cc2)n1 [Compound 1]
cell cycle arrest (in words) (HepG2 cells [1]): cell cycle arrest in the G1 phase | induction of DNA double-strand breaks (γH2AX) (HepG2 cells [2]; 10 μM): did not induce an increase in DNA-DSB formation | induction of DNA double-strand breaks (γH2AX) (HepG2 cells [2]; 50 μM): did not induce an increase in DNA-DSB formation

Source: paper PMC7469689, “Substituted 4,5′-Bithiazoles as Catalytic Inhibitors of Human DNA Topoisomerase IIα” (Journal of Chemical Information and Modeling, 2020)
